Laboratory results: US20250032430A1, “USES OF RHODOQUINONE FOR THE TREATMENT OF DISEASE” (Whitehead Institute for Biomedical Research, priority 2021, published 2025)

What was measured:
143B cells [1] = test: Oxygen consumption rate of cultured cells; assay type: cell-based, human; conditions: UQCRC2 and COX4 knockout cells
Method: Oxygen Consumption Rate (Seahorse): Respiration was measured on intact 143B cells and on mitochondria purified from tissue on the Seahorse XFe-96 Analyzer (Seahorse Bioscience). Cells were incubated in a non-CO2 37° C. incubator in serum-free Seahorse XF RPMI Media (Seahorse Bioscience, Catalog #103336) supplemented with 5 mM glucose, 2 mM glutamine, and 1 mM pyruvate. Oxygen consumption rate (OCR) was measured over a period of 30 minutes. Oxygen consumption rate was also measured on mitochondria purified from mouse tissues. Mitochondria were incubated in MAS buffer (70 mM sucrose, 220 mM mannitol, 10 mM KH2PO4, 5 mM MgCl2, 2 mM HEPES pH 7.2, 1 mM EGTA, 2% BSA) supplemented with 2 mM ADP, 5 mM glutamate, 5 mM malate, 5 mM pyruvate, and 2.5 mM succinate. Oxygen consumption rate (OCR) was measured over a period of 30 minutes.
Oxygen Consumption Rate (Resipher): 25,000 143B cells were seeded into Thermo Nunc Treated, Flat-Bottom 96-Well Microplate (167008) in standard culture medium 24 hours prior to experimentation. […] Live oxygen consumption rate was measured for 3 hours and then media was changed to treat cells with the appropriate inhibitors. Live oxygen consumption rate was monitored for an additional 3 hours. Data were analyzed on Resipher web application (Lucid Scientific).

143B cells [2] = test: Cell proliferation; assay type: cell-based, human; conditions: for proliferation: UQCRC2 and COX4 knockout cells
Method: Proliferation: 25,000 cells were seeded in 6-well dishes and counted on day 1 and day 5 on a Beckman Coulter Counter. Doubling times were calculated using the following equation: […]

SDH complex [3] = test: SDH activity assay in permeabilized purified mitochondria; assay type: biochemical, human; conditions: permeabilized purified mitochondria; 1 μM piericidin
Method: SDH activity was examined in permeabilized purified mitochondria. The rate of succinate oxidation was measured by monitoring fumarate production over time after initiating the reaction with succinate. The rate of fumarate reduction was measured in a separate assay by monitoring the rate of succinate production over time after initiating the reaction with fumarate and NADH. […] Moreover, complex I inhibition by piericidin suppressed the fumarate reduction caused by antimycin treatment (FIG. 2I).
(§1) Isolation of Mitochondria for Biochemical Assays: 143B cells were scraped and pelleted at 1000×g for 5 minutes. Cell pellets were washed in 1×PBS and pelleted at 1000×g for 5 minutes. For tissue samples, approximately 100 mg of tissue powder was weighed out. Tissue powder or cells were re-suspended in isolation buffer (200 mM sucrose, 10 mM Tris HCl, 1 mM EGTA/Tris, pH 7.4 (adjusted with 1M HEPES)), transferred into an ice-cold glass homogenizer (VWR), and dounced with 15-30 strokes. Homogenates were transferred into tubes and spun at 600×g for 10 minutes at 4° C. Supernatants were moved to a new tube and centrifugation was repeated. Then, supernatants were moved to a new tube and pelleted at 7,000×g for 10 minutes at 4° C. Pellets were washed in isolation buffer and centrifugation was repeated. Pellets were subsequently stored at −80° C. until use.
SDH Activity Assay: Purified mitochondria were re-suspended in buffer (0.22 M Mannitol, 0.075 M Sucrose, 1 mM EDTA, 10 mM HEPES pH 7.4, and one complete Protease inhibitor tablet (Sigma)) to a concentration of 5 mg/mL and underwent 5 freeze-thaw cycles to permeabilize them. 30 μg mitochondria (6 uL) were diluted 1:10 (in 54 uL) of SDH activity assay buffer (27.5 mM KH2PO4 pH 7.4, 1.1 mM CoQ-10 (Sigma), 3.5 g/L BSA). Reactions were supplemented with DMSO, 1 μM antimycin, or 1 μM piericidin and pre-incubated at 37° C. for 10 minutes. […] Samples were centrifuged at 16,000×g for 10 minutes at 4° C. and supernatants were dried down and analyzed by LC-MS for succinate and fumarate.

DHODH = DHODH (Homo sapiens, UniProt Q02127)
Method: Isolation of metabolites from adherent cells: To isolate metabolites, media was removed, cells were washed 2 times with ice cold 1×PBS, and wells were covered in LC-MS grade 80:20 Methanol:Water (ThermoFisher). Plates were scraped on dry ice and lysates were collected into eppendorf tubes. Lysates were vortexed for 10 minutes at 4° C. and centrifuged at 16,000×g for 10 minutes at 4° C. Supernatants were immediately dried down in a Refrigerated CentriVap Benchtop Vacuum Concentrator connected to a CentriVap-105 Cold Trap (Labconco). Dried pellets were stored at −80° C. until they were run on LC-MS.
Liquid Chromatography and Mass Spectrometry (polar): A QExactive bench top orbitrap mass spectrometer equipped with an Ion Max source and a HESI II probe coupled to a Dionex UltiMate 3000 HPLC system (Thermo Fisher Scientific) was used to perform all LC-MS experiments. The instrument underwent mass calibration using the standard calibration mixture every 7 days. 2 μL of re-suspended polar metabolite samples were injected onto a SeQuant ZIC-pHILIC 5 μm 150×2.1 mm analytical column equipped with a 2.1×20 mm guard column (MilliporeSigma). The column oven was held at 25° C. and the autosampler tray was held at 4° C. Buffer A was comprised of 20 mM ammonium carbonate, 0.1% ammonium hydroxide. Buffer B was comprised of 100% acetonitrile. The chromatographic gradient was run at a flow rate of 0.150 mL/min as follows: 0-20 min: linear gradient from 80-20% B; 20-20.5 min: linear gradient from 20-80% B; 20.5-28 min: hold at 80% B. The mass spectrometer was operated in full-scan, polarity-switching mode, with the spray voltage set to 3.0 kV, the heated capillary at 275° C., and the HESI probe at 350° C. The sheath gas flow was 40 units, the auxiliary gas flow was 15 units, and the sweep gas flow was 1 unit. MS data was collected in a range of m/z=70-1000. The resolution set at 70,000, the AGC target at 1×106, and the maximum injection time at 20 msec. An additional scan (m/z=220-700) was included in negative mode only to enhance detection of nucleotides.

SDH complex [4] = target: T1, SDH complex (Homo sapiens, UniProt O14521+P21912+P31040+Q99643); test: SDH forward/reverse activity (succinate oxidation, fumarate reduction) by stable isotope tracing in cells; assay type: cell-based
T1 construct: endogenous in cells; host or cells: 143B cells (A5: live cells; A6: permeabilized mitochondria purified from them)
From the text: Fumarate reduction can be monitored in cells by the stable isotope tracing of either ^13C4-aspartate or ^13C5^15N2-glutamine. ^13C4-aspartate contributes to the fumarate pool via oxaloacetate and malate and so should lead to the production of ^13C4-succinate upon fumarate reduction (FIG. 2B). ^13C5^15N2-glutamine contributes to the fumarate pool through the reductive arm of the TCA cycle via glutamate, α-ketoglutarate, isocitrate, citrate, oxaloacetate, and malate. A key distinction between the two labeling approaches is that ^13C5^15N2-glutamine enriches the fumarate pool more upon antimycin treatment due to enhanced reductive carboxylation flux, whereas ^13C4-aspartate labels the fumarate pool to equivalent extents in vehicle and antimycin-treated cells (FIG. 2C). Therefore, with stable isotope tracing of ^13C4-aspartate, the level of ^13C4-succinate is a direct measure of fumarate reduction, whereas the stable isotope tracing of ^13C5^15N2-glutamine requires a ratiometric analysis of labeled succinate to labeled fumarate to normalize for differences in the extent of fumarate labeling.
To test if hypoxia triggers electron leakage onto fumarate or a net-reversal of the SDH complex, the ^13C5^15N2-glutamine tracer was utilized, which enables simultaneous quantification of the forward and reverse activities of SDH through the generation of unique isotopologues upon flux through the oxidative arm (α-ketoglutarate to succinate) compared to the reductive arm (α-ketoglutarate—via citrate—to fumarate) of the TCA cycle (FIG. 2E). In this assay, the forward (succinate oxidation) reaction was defined as the ratio of percent labeled ^13C4-fumarate to its precursor ^13C4-succinate (FIG. 2E) and the reverse (fumarate reduction) as that of percent labeled ^13C3-succinate to its precursor ^13C3-fumarate (FIG. 2E). This type of analysis can be performed when the labeling is in the steady-state, which was determined to be after 4-8 hours of incubation with ^13C5^15N2-glutamine (FIG. S2E-F). This ratiometric analysis of the succinate and fumarate isotopologues eliminates potential biases in the assay, such as higher ^13C3-fumarate labeling in antimycin-treated cells caused increased reductive carboxylation flux (FIG. S2E).
Stable isotope tracing in cells: Cells were seeded 24 hours prior to the experiment in 6-well dishes at 70% density. For stable isotope tracing of glutamine, glutamine-free DMEM (ThermoFisher) was supplemented with 2 mM ^13C5^15N2-glutamine (Sigma), 1 mM pyruvate, 5% FBS, 1% P/S, 0.1 mg/mL uridine. For stable isotope tracing of aspartate, DMEM containing 5% FBS, and 1% penicillin and streptomycin, and 0.1 mg/mL uridine (Sigma) was supplemented with the designated amount of 13C4-aspartate (Sigma) and the pH adjusted to 7.4. Uridine was left out of the media for stable isotope tracing experiments measuring nucleotide biosynthesis. Unless otherwise stated, for all experiments, cells were treated for 8 hours and metabolites were isolated as described below. Relevant compounds were added at the start of the incubation periods.

complex I = test: Complex I activity assay (DCPIP) on purified mitochondria; assay type: biochemical, human; conditions: mitochondria from wild-type, UQCRC2 KO and COX4 KO 143B cells; 1 μM rotenone
Method: as §1
Complex 1 activity assay (DCPIP): Purified mitochondria were re-suspended in buffer (0.22 M Mannitol, 0.075 M Sucrose, 1 mM EDTA, 10 mM HEPES pH 7.4, and one complete Protease inhibitor tablet (Sigma)) to a concentration of 5 mg/mL. […] Either 1 μM rotenone or equivalent DMSO was added to each well and baseline absorbance at 600 nm was measured on a SpectraMax iD5 plate reader (Molecular Devices). Reactions were initiated by adding NADH (Sigma) to a final concentration of 2 mM and absorbance at 600 nm was monitored over time.

[5] = tested on: mitochondrial membrane potential; test: Mitochondrial membrane potential (TMRE dye); assay type: cell-based, human; conditions: 250 nM CCCP
Method: Live Cell Imaging: 143B cells were seeded at 50% density in 6-well dishes 24 hours prior to the experiment. Cells were pre-incubated with 500 nM TMRE dye for 30 minutes and then imaging on a Nikon TE2000 inverted microscope was started. Images were taken at 1 minute intervals over the course of an hour in the mCherry channel while the plate was incubated in a chamber maintaining a temperature of 37° C. and 5% CO2.
Flow Cytometry: Cells were seeded 24 hours prior to the experiment at 50% density. On the day of the experiment, the cells were treated for the designated time with inhibitors. 30 minutes prior to the end of the incubation, 500 nM TMRE dye was added to the wells. Following incubation cells were washed, trypsinized, and filtered through a cell strainer prior to sorting. Fluorescence-activated cell sorting was performed on a LSR-II sorter, in which the fluorescence intensity of individual cells was quantified in the PE channel. Data were analyzed using FlowJo software (TreeStar).

T1 sequence (P31040 43-664): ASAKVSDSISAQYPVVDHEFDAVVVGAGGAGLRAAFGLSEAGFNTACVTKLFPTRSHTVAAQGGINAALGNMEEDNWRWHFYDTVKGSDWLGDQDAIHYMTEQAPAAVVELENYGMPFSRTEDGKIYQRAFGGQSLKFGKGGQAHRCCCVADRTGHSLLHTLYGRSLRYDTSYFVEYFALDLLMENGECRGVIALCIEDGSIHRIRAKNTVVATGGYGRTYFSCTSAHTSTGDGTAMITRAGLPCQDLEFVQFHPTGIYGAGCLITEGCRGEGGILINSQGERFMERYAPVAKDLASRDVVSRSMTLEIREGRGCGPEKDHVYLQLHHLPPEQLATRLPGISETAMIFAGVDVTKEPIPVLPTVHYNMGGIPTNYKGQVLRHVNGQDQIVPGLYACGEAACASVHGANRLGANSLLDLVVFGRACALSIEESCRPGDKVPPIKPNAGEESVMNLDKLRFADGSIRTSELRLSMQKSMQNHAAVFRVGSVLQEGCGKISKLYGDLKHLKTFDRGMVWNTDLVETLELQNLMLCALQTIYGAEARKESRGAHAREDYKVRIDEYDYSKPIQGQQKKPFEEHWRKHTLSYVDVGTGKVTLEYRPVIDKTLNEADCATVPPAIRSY
T1 sequence (P21912 29-280): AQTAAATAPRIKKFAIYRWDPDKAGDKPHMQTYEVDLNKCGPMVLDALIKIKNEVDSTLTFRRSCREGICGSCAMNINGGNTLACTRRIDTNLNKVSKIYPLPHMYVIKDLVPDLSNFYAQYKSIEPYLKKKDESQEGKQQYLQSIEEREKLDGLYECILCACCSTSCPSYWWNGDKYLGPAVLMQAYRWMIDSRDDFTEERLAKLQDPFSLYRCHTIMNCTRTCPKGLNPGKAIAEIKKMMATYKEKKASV
T1 sequence (Q99643 30-169): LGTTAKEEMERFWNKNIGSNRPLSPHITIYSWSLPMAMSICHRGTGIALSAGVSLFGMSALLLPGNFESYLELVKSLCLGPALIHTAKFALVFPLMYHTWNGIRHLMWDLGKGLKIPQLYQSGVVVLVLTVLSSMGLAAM
T1 sequence (O14521 57-159): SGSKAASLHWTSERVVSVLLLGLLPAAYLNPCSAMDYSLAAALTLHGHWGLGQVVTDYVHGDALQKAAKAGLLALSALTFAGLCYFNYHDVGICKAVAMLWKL
Chain of DHODH (Q02127 whole entry): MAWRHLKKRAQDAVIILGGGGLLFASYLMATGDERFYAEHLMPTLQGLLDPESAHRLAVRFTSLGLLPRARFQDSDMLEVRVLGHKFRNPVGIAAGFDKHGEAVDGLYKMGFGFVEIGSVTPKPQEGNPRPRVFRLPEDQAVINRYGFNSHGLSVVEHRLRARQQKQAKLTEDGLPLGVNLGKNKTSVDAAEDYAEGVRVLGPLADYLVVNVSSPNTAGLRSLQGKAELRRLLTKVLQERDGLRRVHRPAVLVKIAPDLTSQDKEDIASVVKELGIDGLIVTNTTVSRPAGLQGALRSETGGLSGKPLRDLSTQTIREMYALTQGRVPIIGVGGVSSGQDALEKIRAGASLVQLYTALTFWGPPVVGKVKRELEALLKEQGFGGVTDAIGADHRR

C/C=C(\C)[C@H](O)[C@H](C)/C=C(C)/C=C/C/C(C)=C/Cc1nc(OC)c(OC)c(O)c1C [piericidin]
O2 consumption rate (143B cells [1]): did not affect
proliferation (143B cells [2]): did reduce their proliferation, although to a lesser extent than in wild-type cells
fumarate reduction caused by antimycin treatment (SDH complex [3]): suppressed
DHODH activity (13C4-aspartate into 13C3-UTP) (DHODH; combined inhibition of complex III with antimycin and complex I with piericidin): no effect

CC1(C)CC(NC(=O)C[P+](c2ccccc2)(c2ccccc2)c2ccccc2)CC(C)(C)N1[O] [MitoTEMPO]
fumarate reduction (SDH complex [4]; antimycin-treated 143B cells): did not affect
fumarate reduction (SDH complex [4]; vehicle-treated 143B cells): significant decrease

C=C(C)[C@H]1Cc2c(ccc3c2O[C@@H]2COc4cc(OC)c(OC)cc4[C@@H]2C3=O)O1 [rotenone]
complex I activity (complex I): significantly reduced

COC(=O)CCC(=O)OC [dimethylsuccinate]
increase in fumarate reduction caused by antimycin treatment (SDH complex [4]; 143B cells, antimycin co-treatment): slightly suppressed

Cc1c(-c2ccc(-c3ccccc3F)cc2)nc2ccc(F)cc2c1C(=O)O [brequinar]
O2 consumption rate (143B cells [1]): no effect
proliferation (143B cells [2]): reduced
aspartate-increased proliferation of antimycin-treated cells (143B cells [2]; culture media supplemented with aspartate, antimycin-treated cells): ablated
13C3-UTP biosynthesis (DHODH; UQCRC2 and COX4 knockout 143B cells, 2 μM brequinar): ablated
de novo UTP biosynthesis (13C3-UTP generation, DHODH activity) (DHODH; wild-type 143B cells, 13C4-aspartate tracing 8 hours, 500 nM antimycin, 2 μM brequinar): ablated

N#CC(C#N)=NNc1cccc(Cl)c1 [CCCP, Carbonyl cyanide 3-chlorophenylhydrazone]
TMRE fluorescence [5]: reduced fluorescence

O=C(O)CC(=O)O [malonic acid]
proliferation (143B cells [2]): significantly reduced
fumarate reduction (SDH complex [4]; SDHB knockout cells): no effect
fumarate reduction (SDH complex [4]; UQCRC2 and COX4 knockout cells): almost completely ablated
